Data taken from patent publication US20180289809A1, “FORMULATIONS OF HYDROPHILIC COMPOUNDS” (BCS Business Consulting Services Pte Ltd., priority 2015, published 2018).

Test: Formation of clear nanoemulsion formulation with substituted hydrophobic phase ingredient
Type: physicochemical
Details: used as hydrophobic phase ingredient substituted into the examples; failures generally began cloudy and separated into two phases, primarily within 24 hours

| Compound | forms successful nanoemulsion / clear formulation |
| --- | --- |
| CC(C)=CCC/C(C)=C/CC/C(C)=C/CC/C=C(\C)CC/C=C(\C)CCC=C(C)C [Squalene] | did form clear formulations |
| CCCCCCCCCCCCCCCCOC(=O)CCCCCCC [cetyl octanoate] | did not form successful nanoemulsion formulations |
| C[Si]1(C)O[Si](C)(C)O[Si](C)(C)O[Si](C)(C)O[Si](C)(C)O1 [cycopentasiloxane] | did not form successful nanoemulsion formulations |
| CCCCC(CC)COC(=O)c1ccccc1 (stereo not shown) [ethylhexyl benzoate] | did not form successful nanoemulsion formulations |
| CCCCCCCCCCCCCCCC(=O)OC(C)C [isopropyl palmitate] | did not form successful nanoemulsion formulations |
| CCCCCCCCCCCCCCCCCC(=O)OCCCCCCCC [octyl stearate] | did not form successful nanoemulsion formulations |
| CCCCC/C=C\C/C=C\CCCCCCCC(=O)Oc1c(C)c(C)c2c(c1C)CC[C@@](C)(CCC[C@H](C)CCC[C@H](C)CCCC(C)C)O2 [tocopheryl linoleate] | did not form successful nanoemulsion formulations |
